Data published in ChEMBL document CHEMBL1671662, “In vitro activities of telavancin and six comparator agents against anaerobic bacterial isolates” (2009).
Values after ≈ are worked out from the molar mass of the structure shown.

How the values were obtained:
Format in all cases: functional
Prevotella oris = assay: Antibacterial activity against Prevotella oris by CLSI M11-A6 agar dilution method; conditions: Segatella oris
Parabacteroides merdae = assay: Antibacterial activity against Parabacteroides merdae by CLSI M11-A6 agar dilution method
Clostridium bolteae = assay: Antibacterial activity against Clostridium bolteae by CLSI M11-A6 agar dilution method; conditions: Enterocloster bolteae
Ruminococcus albus = assay: Antibacterial activity against Ruminococcus albus by CLSI M11-A6 agar dilution method; conditions: Hominimerdicola alba
Eggerthella lenta = assay: Antibacterial activity against Eggerthella lenta by CLSI M11-A6 agar dilution method
[1] = tested on: Peptoniphilus asaccharolyticus; assay: Antibacterial activity against Peptoniphilus asaccharolyticus by CLSI M11-A6 agar dilution method
Clostridioides difficile = assay: Antibacterial activity against Clostridium difficile by CLSI M11-A6 agar dilution method
Hoylesella oralis = assay: Antibacterial activity against Prevotella oralis by CLSI M11-A6 agar dilution method
Coriobacterium = assay: Antibacterial activity against […] by CLSI M11-A6 agar dilution method
[2] = tested on: Enterocloster clostridioformis; assay: Antibacterial activity against Clostridium clostridioforme by CLSI M11-A6 agar dilution method
Clostridium subterminale = assay: Antibacterial activity against Clostridium subterminale by CLSI M11-A6 agar dilution method
Ruminococcus torques = assay: Antibacterial activity against Ruminococcus torques by CLSI M11-A6 agar dilution method; conditions: Mediterraneibacter torques
Clostridium leptum = assay: Antibacterial activity against Clostridium leptum by CLSI M11-A6 agar dilution method
Clostridium beijerinckii = assay: Antibacterial activity against Clostridium beijerinckii by CLSI M11-A6 agar dilution method
[3] = tested on: Peptostreptococcus anaerobius; assay: Antibacterial activity against Peptostreptococcus anaerobius by CLSI M11-A6 agar dilution method
[4] = tested on: Bacteroides thetaiotaomicron; assay: Antibacterial activity against Bacteroides thetaiotaomicron by CLSI M11-A6 agar dilution method
Clostridium sporogenes = assay: Antibacterial activity against Clostridium sporogenes by CLSI M11-A6 agar dilution method
Clostridium hathewayi = assay: Antibacterial activity against Clostridium hathewayi by CLSI M11-A6 agar dilution method; conditions: Hungatella hathewayi
[5] = tested on: Paeniclostridium sordellii; assay: Antibacterial activity against Clostridium sordellii by CLSI M11-A6 agar dilution method; conditions: Paraclostridium sordellii
Blautia producta = assay: Antibacterial activity against Ruminococcus productus by CLSI M11-A6 agar dilution method
Bilophila wadsworthia = assay: Antibacterial activity against Bilophila wadsworthia by CLSI M11-A6 agar dilution method
Prevotella corporis = assay: Antibacterial activity against Prevotella corporis by CLSI M11-A6 agar dilution method
Bifidobacterium dentium = assay: Antibacterial activity against Bifidobacterium dentium by CLSI M11-A6 agar dilution method
[6] = tested on: Clostridium sporosphaeroides; assay: Antibacterial activity against Clostridium sporosphaeroides by CLSI M11-A6 agar dilution method; conditions: Faecalispora sporosphaeroides
[7] = tested on: Coprobacillus cateniformis; assay: Antibacterial activity against Coprobacillus cateniformis by CLSI M11-A6 agar dilution method
[8] = tested on: Propionibacterium propionicum; assay: Antibacterial activity against Propionibacterium propionicus by CLSI M11-A6 agar dilution method; conditions: Arachnia propionica
Parvimonas micra = assay: Antibacterial activity against Peptostreptococcus micros by CLSI M11-A6 agar dilution method
[9] = tested on: Clostridium celerecrescens; assay: Antibacterial activity against Clostridium celerecrescens by CLSI M11-A6 agar dilution method; conditions: Lacrimispora celerecrescens
[10] = tested on: Bifidobacterium pseudolongum; assay: Antibacterial activity against Bifidobacterium pseudolongum by CLSI M11-A6 agar dilution method
Bacteroides ovatus = assay: Antibacterial activity against Bacteroides ovatus by CLSI M11-A6 agar dilution method
Bifidobacterium bifidum = assay: Antibacterial activity against Bifidobacterium bifidum by CLSI M11-A6 agar dilution method
Finegoldia magna = assay: Antibacterial activity against Finegoldia magna by CLSI M11-A6 agar dilution method
Ruminococcus gnavus = assay: Antibacterial activity against Ruminococcus gnavus by CLSI M11-A6 agar dilution method; conditions: Mediterraneibacter gnavus
Prevotella bivia = assay: Antibacterial activity against Prevotella bivia by CLSI M11-A6 agar dilution method
Ruminococcus lactaris = assay: Antibacterial activity against Ruminococcus lactaris by CLSI M11-A6 agar dilution method
Ruminococcus obeum = assay: Antibacterial activity against Ruminococcus obeum by CLSI M11-A6 agar dilution method; conditions: Blautia obeum
[11] = tested on: Parabacteroides distasonis; assay: Antibacterial activity against Parabacteroides distasonis by CLSI M11-A6 agar dilution method
Clostridium sp. = assay: Antibacterial activity against Clostridium sp. by CLSI M11-A6 agar dilution method
Prevotella nigrescens = assay: Antibacterial activity against Prevotella nigrescens by CLSI M11-A6 agar dilution method
Blautia luti = assay: Antibacterial activity against Ruminococcus luti by CLSI M11-A6 agar dilution method
Streptococcus anginosus = assay: Antibacterial activity against Streptococcus anginosus by CLSI M11-A6 agar dilution method
[12] = tested on: Sutterella wadsworthensis; assay: Antibacterial activity against Sutterella wadsworthensis by CLSI M11-A6 agar dilution method
Hoylesella loescheii = assay: Antibacterial activity against Prevotella loescheii by CLSI M11-A6 agar dilution method

Cc1ncc([N+](=O)[O-])n1CCO [METRONIDAZOLE] showed an MIC50 (Prevotella oris) of 0.5 µg/mL (≈ 2.92 µM), an MIC90 (Prevotella oris) of 1 µg/mL (≈ 5.84 µM) and an MIC50 (Parabacteroides merdae) of 1 µg/mL (≈ 5.84 µM). It also gave an MIC90 (Parabacteroides merdae) of 2 µg/mL (≈ 11.7 µM), an MIC50 (Clostridium bolteae) of no more than 0.12 µg/mL and an MIC90 (Clostridium bolteae) of 0.25 µg/mL (≈ 1.46 µM). It also gave an MIC50 (Ruminococcus albus) of no more than 0.12 µg/mL, an MIC90 (Ruminococcus albus) of 0.25 µg/mL (≈ 1.46 µM) and an MIC50 (Eggerthella lenta) of 1 µg/mL (≈ 5.84 µM). It also gave an MIC90 (Eggerthella lenta) of 128 µg/mL (≈ 748 µM), an MIC50 [1] of 0.5 µg/mL (≈ 2.92 µM) and an MIC90 [1] of 2 µg/mL (≈ 11.7 µM). For the same compound, the MIC50 (Clostridioides difficile) was 0.5 µg/mL (≈ 2.92 µM), the MIC90 (Clostridioides difficile) was 0.5 µg/mL (≈ 2.92 µM) and the MIC50 (Hoylesella oralis) was 0.5 µg/mL (≈ 2.92 µM). For the same compound, the MIC90 (Hoylesella oralis) was 1 µg/mL (≈ 5.84 µM), the MIC50 (Coriobacterium) was 1 µg/mL (≈ 5.84 µM) and the MIC90 (Coriobacterium) was 128 µg/mL (≈ 748 µM). The MIC [2] was no more than 0.12 µg/mL, the MIC50 [2] was no more than 0.12 µg/mL and the MIC90 [2] was no more than 0.12 µg/mL. For the same compound, the MIC50 (Clostridium subterminale) was no more than 0.12 µg/mL, the MIC90 (Clostridium subterminale) was 0.25 µg/mL (≈ 1.46 µM) and the MIC50 (Ruminococcus torques) was no more than 0.12 µg/mL. For the same compound, the MIC90 (Ruminococcus torques) was 0.25 µg/mL (≈ 1.46 µM), the MIC50 (Clostridium leptum) was 0.25 µg/mL (≈ 1.46 µM) and the MIC90 (Clostridium leptum) was 1 µg/mL (≈ 5.84 µM). For the same compound, the MIC50 (Clostridium beijerinckii) was 0.25 µg/mL (≈ 1.46 µM), the MIC90 (Clostridium beijerinckii) was 1 µg/mL (≈ 5.84 µM) and the MIC50 [3] was 0.5 µg/mL (≈ 2.92 µM). For the same compound, the MIC90 [3] was 2 µg/mL (≈ 11.7 µM), the MIC50 [4] was 1 µg/mL (≈ 5.84 µM) and the MIC90 [4] was 1 µg/mL (≈ 5.84 µM). It also gave an MIC50 (Clostridium sporogenes) of 0.25 µg/mL (≈ 1.46 µM), an MIC90 (Clostridium sporogenes) of 1 µg/mL (≈ 5.84 µM) and an MIC50 (Clostridium hathewayi) of 0.25 µg/mL (≈ 1.46 µM). For the same compound, the MIC90 (Clostridium hathewayi) was 0.5 µg/mL (≈ 2.92 µM), the MIC50 [5] was 0.25 µg/mL (≈ 1.46 µM) and the MIC90 [5] was 1 µg/mL (≈ 5.84 µM). The MIC50 (Blautia producta) was no more than 0.12 µg/mL, the MIC90 (Blautia producta) was 0.25 µg/mL (≈ 1.46 µM) and the MIC50 (Bilophila wadsworthia) was no more than 0.12 µg/mL. The MIC90 (Bilophila wadsworthia) was 0.25 µg/mL (≈ 1.46 µM), the MIC50 (Prevotella corporis) was 0.5 µg/mL (≈ 2.92 µM) and the MIC90 (Prevotella corporis) was 1 µg/mL (≈ 5.84 µM). It also gave an MIC50 (Bifidobacterium dentium) of 1 µg/mL (≈ 5.84 µM), an MIC90 (Bifidobacterium dentium) of 128 µg/mL (≈ 748 µM) and an MIC50 [6] of 0.25 µg/mL (≈ 1.46 µM). It also gave an MIC90 [6] of 1 µg/mL (≈ 5.84 µM), an MIC50 [7] of 1 µg/mL (≈ 5.84 µM) and an MIC90 [7] of 128 µg/mL (≈ 748 µM). For the same compound, the MIC50 [8] was 1 µg/mL (≈ 5.84 µM), the MIC90 [8] was 128 µg/mL (≈ 748 µM) and the MIC50 (Parvimonas micra) was 0.5 µg/mL (≈ 2.92 µM). It also gave an MIC90 (Parvimonas micra) of 2 µg/mL (≈ 11.7 µM), an MIC50 [9] of 0.25 µg/mL (≈ 1.46 µM) and an MIC90 [9] of 1 µg/mL (≈ 5.84 µM). The MIC50 [10] was 1 µg/mL (≈ 5.84 µM), the MIC90 [10] was 128 µg/mL (≈ 748 µM) and the MIC50 (Bacteroides ovatus) was 1 µg/mL (≈ 5.84 µM). The MIC90 (Bacteroides ovatus) was 2 µg/mL (≈ 11.7 µM), the MIC50 (Bifidobacterium bifidum) was 1 µg/mL (≈ 5.84 µM) and the MIC90 (Bifidobacterium bifidum) was 128 µg/mL (≈ 748 µM). The MIC50 (Finegoldia magna) was 0.5 µg/mL (≈ 2.92 µM), the MIC90 (Finegoldia magna) was 2 µg/mL (≈ 11.7 µM) and the MIC50 (Ruminococcus gnavus) was 0.25 µg/mL (≈ 1.46 µM). The MIC90 (Ruminococcus gnavus) was 0.25 µg/mL (≈ 1.46 µM), the MIC50 (Prevotella bivia) was 0.5 µg/mL (≈ 2.92 µM) and the MIC90 (Prevotella bivia) was 1 µg/mL (≈ 5.84 µM). For the same compound, the MIC50 (Ruminococcus lactaris) was no more than 0.12 µg/mL, the MIC90 (Ruminococcus lactaris) was 0.25 µg/mL (≈ 1.46 µM) and the MIC50 (Ruminococcus obeum) was no more than 0.12 µg/mL. It also gave an MIC90 (Ruminococcus obeum) of no more than 0.12 µg/mL, an MIC50 [11] of 1 µg/mL (≈ 5.84 µM) and an MIC90 [11] of 2 µg/mL (≈ 11.7 µM). The MIC50 (Clostridium sp.) was 0.25 µg/mL (≈ 1.46 µM), the MIC90 (Clostridium sp.) was 1 µg/mL (≈ 5.84 µM) and the MIC50 (Prevotella nigrescens) was 0.5 µg/mL (≈ 2.92 µM). The MIC90 (Prevotella nigrescens) was 1 µg/mL (≈ 5.84 µM), the MIC50 (Blautia luti) was no more than 0.12 µg/mL and the MIC90 (Blautia luti) was 0.25 µg/mL (≈ 1.46 µM). It also gave an MIC50 (Streptococcus anginosus) of 128 µg/mL (≈ 748 µM), an MIC90 (Streptococcus anginosus) greater than 128 µg/mL and an MIC50 [12] of 16 µg/mL (≈ 93.5 µM). For the same compound, the MIC90 [12] was greater than 128 µg/mL, the MIC50 (Hoylesella loescheii) was 0.5 µg/mL (≈ 2.92 µM) and the MIC90 (Hoylesella loescheii) was 1 µg/mL (≈ 5.84 µM).
